Laboratory results taken from paper PMC6821791, “Phase I Trial of Pyragrel, a Novel Thromboxane Synthetase Inhibitor, to Evaluate the Safety, Tolerability, and Pharmacokinetics in Healthy Volunteers” (Frontiers in Pharmacology, 2019).

Tests used:
Type in all cases: in vivo, human
[1] = Part IV urinary excretion of pyragrel and four metabolites; settings: for Cumulative urinary drug recovery (normalized to pyragrel) within 24 h: n=12, Mean ± SD; for Total cumulative urine excreted amounts over 24 h: 12 subjects; for Accumulative urinary excretion rate: over 24 h
Description: Urine samples were collected after the initiation of pyragrel infusion as follows in Part IV: 0–3 (3 h infusion period), 3–7, 7–11, 11–15, and 15–24 h after pyragrel administration during each period. […] Production of 11-dehydro-thrombxane B2 (11-D-HTXB2) in urine sample was detected by ELISA method.

[2] = Part V prolonged 24 h infusion study, plasma pharmacokinetics; settings: for AUCINF / AUClast / Cl / Cmax / Tmax / Vz / t1/2: continuous i.v. infusion of pyragrel 360 mg within 24 h, plasma, n=4, mean ± SD
Description: (§1) Pyragrel administration regimens are as follows: In the single-escalating-dose study (Part I), a total of 52 subjects are enrolled to receive one of three treatments (pyragrel, ozagrel, or placebo, diluted in 500 Ml normal saline) as a 3-h i.v. infusion. Six dose levels of pyragrel (30, 60,120, 180, 240, 300 mg) were intravenously infused to healthy subjects. Of the 12 subjects each at the first three dose groups (30, 60, and 120 mg), 8 received pyragrel, 2 received ozagrel (80 mg), and 2 received placebo. Eight subjects were assigned as 4/2/2 for pyragrel, ozagrel, and placebo at the 180 mg level. Only four subjects were enrolled at the 240- and 300-mg group each; all received pyragrel. […] In the saline-volume-changed study (Part II), the safety and pharmacokinetics of pyragrel were assessed by decreasing the volume of dilution saline. Four subjects received a single 3 h infusion of pyragrel 240 mg diluted in 250 ml saline instead of the 500 ml used in Part I. Blood samples were collected at multiple time points before and after the initiation of the infusion in Part I and Part II; 15 blood samples were predetermined as follows: before drug administration (time 0), 0.5, 1, 2, 3 (4 samples collected during infusion), 3.25, 3.5, 4, 5, 7, 9, 11, 15, 24, and 48 h (10 samples collected post infusion) after the initiation of the infusion. In the multiple-dose study (Part III), 12 subjects received a single 3 h infusion of 180 mg pyragrel (diluted in 250 ml saline) on Day 1 and Day 6 and twice 3 h infusion of 180 mg pyragrel from Day 2 to 5; 14 blood samples were collected on Day 1 and Day 6 before drug administration (0 h), 0.5, 1, 2, 3, 3.25, 3.5, 4, 5, 7, 9, 11, 15, 24 h after the initiation of the infusion; moreover, 5 ml cubital vein blood was collected each time right before pyragrel infusion on Day 2 to Day 5. In the 3×3 crossover study (Part IV), 12 subjects were randomized to receive each of the three dosing groups (60, 120, or 240 mg) of pyragrel (diluted with 250 ml saline, 3 h infusion) per period, with a 7-day washout period between doses. Sixteen blood samples were collected as follows: before drug administration (0 h), 0.17, 0.35, 0.5, 1, 2, 3, 3.25, 3.5, 4, 5, 7, 9, 11, 15, and 24 h after the initiation of the infusion at each period. In the prolonged infusion study (Part V), four subjects received continuous 24 h infusion of pyragrel 360 mg (diluted in 600 ml saline); 19 blood samples were collected as follows: before drug administration (0 h), 0.25, 0.5, 1, 2, 4, 8, 12, 16, 20 (nine samples collected during administration), 24.25, 24.5, 25, 26, 28, 30, 32, 36, and 48 h after the initiation of the infusion (details shown in Figure 1 ). In all five cohorts, 5 ml of cubital vein blood was collected with a sodium heparin anticoagulant tube and centrifuged at 3000 r·min^-1. Each plasma sample was divided into two aliquots and stored at −20°C until further bioanalysis. […] Briefly, 10 µl of the extract drug from […] was injected onto a Zorbax EcLipse XDB C18 column (2.1 mm × 150 mm, 5 μm) (Agilent, USA) using isocratic elution with a mobile phase composed of methanol, water, and formic acid (65:35:0.1, v/v/v). Determination of the analytes was achieved by tandem-mass spectrometry with positive electrospray ionization.
(§2) Pharmacokinetic parameters were calculated using the noncompartmental model (NCA module), WinNonlin 6.1 (Pharsight Corporation, Mountain View, CA, USA). Statistical analysis was performed with SPSS 18. The actual dosing and sampling times were utilized in the analysis. Pharmacokinetic parameters were summarized by dose regimens using descriptive statistics, including n, mean, and the coefficient of variation (CV). For Tmax, only n, min, median, and max were reported.

[3] = Part IV 3×3 crossover study, plasma pharmacokinetics
Description: as §1, §2
In Part IV, a multivariate ANOVA model containing subjects, treatments (60, 120, or 240 mg), periods, and gender was used to analyze log-transformed Cmax and AUC. Tmax was analyzed using various related Friedman nonparametric tests.

[4] = Part III multiple-dose study, plasma pharmacokinetics; settings: for Accumulation on repeated dose, in words: repeated dose of pyragrel 180 mg for 6 days (once- or twice-daily dosing)
Description: as §1, §2

[5] = metabolite in plasma after pyragrel 60 mg, n=12
[6] = metabolite in plasma after pyragrel 120 mg, n=12
[7] = metabolite in plasma after pyragrel 240 mg, n=12
[8] = Part III, metabolite in plasma, multiple dose i.v. infusion of 180 mg pyragrel
[9] = metabolite in plasma, single dose of 180 mg pyragrel
[10] = single 3 h infusion of pyragrel 60 mg
[11] = single 3 h infusion of pyragrel 240 mg
[12] = pyragrel 60 mg, 3 h infusion, plasma, n=12, mean ± SD
[13] = pyragrel 120 mg, 3 h infusion, plasma, n=12, mean ± SD
[14] = pyragrel 240 mg, 3 h infusion, plasma, n=12, mean ± SD
[15] = Part III, multiple dose, 3-h infusions of pyragrel 180 mg for 6 days, plasma, n=12
[16] = Part III, single dose, 3-h infusion of pyragrel 180 mg, plasma, n=12

COc1cc(CCC(=O)O)ccc1OCc1nc(C)c(C)nc1C [BBS]
Cumulative urinary drug recovery (normalized to pyragrel) within 24 h ([1]; single dose of pyragrel 60 mg): 3.90 ± 2.11% | Cumulative urinary drug recovery (normalized to pyragrel) within 24 h ([1]; single dose of pyragrel 120 mg): 1.93 ± 0.85% | Cumulative urinary drug recovery (normalized to pyragrel) within 24 h ([1]; single dose of pyragrel 240 mg): 2.75 ± 0.97% | AUCINF [2]: 11,533 ± 3,946 h*µg·L^-1 | AUClast [2]: 11,500 ± 3,952 h*µg·L^-1 | Cl [2]: 34.11 ± 11.36 L/h | Cmax [2]: 566.1 ± 195.0 ng/mL | Tmax [2]: 18.06 ± 4.13 h | Vz [2]: 234.4 ± 89.53 L | t1/2 [2]: 4.74 ± 0.65 h | AUCINF [3, 5]: 1882.93 ± 534.37 µg·h/L | AUClast [3, 5]: 1821.9 ± 496.75 µg·h/L | Cl [3, 5]: 34.77 ± 11.33 L/h | Cmax [3, 5]: 373.16 ± 101.22 ng/mL | Tmax [3, 5]: 3.29 ± 0.18 h | Vz [3, 5]: 261.4 ± 115.98 L | t1/2 [3, 5]: 5.12 ± 1.17 h | AUCINF [3, 6]: 4036.27 ± 1186.62 µg·h/L | AUClast [3, 6]: 3969.83 ± 1184.3 µg·h/L | Cl [3, 6]: 32.54 ± 10.86 L/h | Cmax [3, 6]: 837.84 ± 228.5 ng/mL | Tmax [3, 6]: 3.27 ± 0.17 h | Vz [3, 6]: 250.94 ± 149.96 L | t1/2 [3, 6]: 5.08 ± 1.38 h | AUCINF [3, 7]: 9572.13 ± 3748.80 µg·h/L | AUClast [3, 7]: 9440.71 ± 3717.86 µg·h/L | Cl [3, 7]: 30.04 ± 16.36 L/h | Cmax [3, 7]: 2041.56 ± 684.12 ng/mL | Tmax [3, 7]: 3.25 ± 0.18 h | Vz [3, 7]: 212.93 ± 126.27 L | AUCINF [4, 8]: 7027.46 ± 3017.92 µg·h/L | AUClast [4, 8]: 6797.36 ± 2919.19 µg·h/L | Cl [4, 8]: 35.50 ± 18.33 L/h | Cmax [4, 8]: 1356.91 ± 564.13 µg/L | Tmax [4, 8]: 3.19 ± 0.11 h | Vz [4, 8]: 152.37 ± 94.36 L | t1/2 [4, 8]: 6.07 ± 2.11 h | R ([4]; Part III, metabolite, multiple vs single dose of 180 mg pyragrel, footnote d not given): 1.27 ± 0.13 | AA ([4]; Part III, metabolite, multiple vs single dose of 180 mg pyragrel, footnote e not given): 1.13 ± 0.24 | AUCINF [4, 9]: 6145.79 ± 2339.86 µg·h/L | AUClast [4, 9]: 6022.22 ± 2291.72 µg·h/L | Cl [4, 9]: 36.52 ± 23.08 L/h | Cmax [4, 9]: 1324.23 ± 447.99 µg/L | Tmax [4, 9]: 3.25 ± 0.15 h | Vz [4, 9]: 285.61 ± 221.29 L | t1/2 [4, 9]: 5.31 ± 1.42 h | Accumulation on repeated dose, in words [4]: no accumulation

COc1cc(C=CC(=O)[O-])ccc1OCc1nc(C)c(C)nc1C.[Na+] [Pyragrel, sodium pyragrel]
Urinary excretion, share of the total drug amount ([1]; Part IV, three dose groups, pyragrel plus metabolites): more than 70% | Total cumulative urine excreted amounts over 24 h [1, 10]: 44.80 mg | Accumulative urinary excretion rate [1, 10]: 74.67% | Total cumulative urine excreted amounts over 24 h ([1]; single 3 h infusion of pyragrel 120 mg): 85.07 mg | Total cumulative urine excreted amounts over 24 h [1, 11]: 175.83 mg | Accumulative urinary excretion rate [1, 11]: 73.26% | Cumulative urinary drug recovery (normalized to pyragrel) within 24 h ([1]; single dose of pyragrel 60 mg): 0.94 ± 0.30% | Cumulative urinary drug recovery (normalized to pyragrel) within 24 h ([1]; single dose of pyragrel 120 mg): 0.67 ± 0.14% | Cumulative urinary drug recovery (normalized to pyragrel) within 24 h ([1]; single dose of pyragrel 240 mg): 0.79 ± 0.28% | Plasma concentration remaining, fraction of Cmax ([2]; at 4 h post-infusion): 1/20 | AUCINF [2]: 14,995 ± 2,494 h*µg·L^-1 | AUClast [2]: 14,984 ± 2,497 h*µg·L^-1 | Cl [2]: 24.47 ± 3.75 L/h | Cmax [2]: 861.7 ± 155.1 ng/mL | Tmax [2]: 14.00 ± 7.66 h | Vz [2]: 260.2 ± 144.4 L | t1/2 [2]: 7.05 ± 3.74 h | AUCINF ([2]; listed as pyragrel): 14,994.57 ± 2,493.9 h*µg·L^-1 | AUClast ([2]; listed as pyragrel): 14,984.40 ± 2,496.64 h*µg·L^-1 | Cmax ([2]; listed as pyragrel): 861.67 ± 155.05 ng/mL | AUCINF [3, 12]: 2,003.8 ± 318.7 h*µg·L^-1 | AUClast [3, 12]: 1,990.8 ± 317.9 h*µg·L^-1 | Cl [3, 12]: 30.65 ± 4.91 L/h | Cmax [3, 12]: 641.2 ± 107.8 ng/mL | Tmax [3, 12]: 2.75 ± 0.45 h | Vz [3, 12]: 184.5 ± 80.37 L | t1/2 [3, 12]: 4.28 ± 1.84 h | AUCINF [3, 13]: 4,325.2 ± 541.5 h*µg·L^-1 | AUClast [3, 13]: 4,317.4 ± 541.1 h*µg·L^-1 | Cl [3, 13]: 28.18 ± 3.83 L/h | Cmax [3, 13]: 1505.6 ± 178.7 ng/mL | Tmax [3, 13]: 2.58 ± 0.51 h | Vz [3, 13]: 197.6 ± 77.76 L | t1/2 [3, 13]: 4.82 ± 1.63 h | AUCINF [3, 14]: 9,292.8 ± 1,468.0 h*µg·L^-1 | AUClast [3, 14]: 9,279.1 ± 1,466.3 h*µg·L^-1 | Cl [3, 14]: 26.45 ± 4.34 L/h | Cmax [3, 14]: 3165.7 ± 426.4 ng/mL | Tmax [3, 14]: 2.92 ± 0.29 h | Vz [3, 14]: 194.3 ± 72.28 L | t1/2 [3, 14]: 5.06 ± 1.58 h | AUCINF [4, 15]: 6,939.5 ± 2,072.8 h*µg·L^-1 | AUCTAU [4, 15]: 6,854.5 ± 2,062.7 h*µg·L^-1 | AUClast [4, 15]: 6,909.9 ± 2066.8 h*µg·L^-1 | Cl [4, 15]: 28.49 ± 8.49 L/h | Cmax [4, 15]: 2,447.8 ± 825.3 µg·L^-1 | Tmax [4, 15]: 2.42 ± 0.67 h | t1/2 [4, 15]: 6.51 ± 2.73 h | Cmin ([4]; Part III, pyragrel 180 mg, printed in column Single dose, footnote a: steady-state trough concentration, n=12): 4.22 ± 2.26^a µg·L^-1 | Cavg ([4]; Part III, pyragrel 180 mg, printed in column Single dose, footnote b: steady-state peak concentration, n=12): 571.2 ± 171.9^b µg·L^-1 | AUCINF [4, 16]: 6,680.3 ± 1,668.0 h*µg·L^-1 | AUClast [4, 16]: 6,663.3 ± 1665.7 h*µg·L^-1 | Cl [4, 16]: 28.85 ± 8.75 L/h | Tmax [4, 16]: 2.83 ± 0.39 h | Vz [4, 16]: 226.0 ± 141.7 L | t1/2 [4, 16]: 5.12 ± 1.91 h | Cmax ([4]; Part III, single dose, 3-h infusion of pyragrel 180 mg, plasma, n=12, footnote c: steady-state average concentration): 2,311.9 ± 514.4^c µg·L^-1 | Accumulation on repeated dose, in words [4]: no accumulation
